Reference: article PMC6553790 (PLoS Pathogens, 2019)
Entries after “also recorded” stand apart in the source; their conditions may differ.

Tests used:
[1] = tested on: P. falciparum Cam3.II lines; assay: Stage-specificity 1 hr pulse survival assay; format: cell-based, Plasmodium falciparum; settings: 150 nM
Protocol: All stage-specificity tests were concluded 72 hr from the start of the experiment. Assays were performed in duplicate. Parasites were prepared by synchronizing ring stages with 5% D-Sorbitol and later isolating the schizonts over a 75% Percoll gradient. These schizonts were allowed to reinvade fresh RBCs at 2% hematocrit. Parasites were tested as purified schizonts, early rings, mid rings, late rings or trophozoites (~45–47, 0–3, 10–13, 18–21 and 24–27 hr post-invasion, respectively), and exposed to drug or DMSO vehicle control in 1 mL volumes. Parasites were seeded at 0.5% parasitemia and 1% hematocrit in a 48-well plate.
Drug-treated parasites were washed as previously described for the RSA0-3h. Briefly, 1 mL cultures were transferred to 15 mL conical tubes, centrifuged at 800×g for 5 minutes to pellet cells, and the culture medium containing drug was carefully removed. Cells were subsequently resuspended in 10 mL drug-free medium, centrifuged, and the wash medium removed. Finally, cells were resuspended in 1 mL of fresh drug-free medium, transferred to a new well, and returned to standard culture conditions for the duration of the assay. Parasitemias were measured by flow cytometry and the survival of drug-treated parasites was calculated as a percent of DMSO-treated control cultures.

[2] = tested on: P. falciparum Cam3.II lines; assay: Isobologram analyses (fixed-ratio drug combinations); format: cell-based, Plasmodium falciparum
Protocol: Assays were performed with fixed ratios of drug combinations (1:0, 4:1, 2:1, 1:1, 1:2, 1:4, and 0:1), tested in duplicate. Combinations were prepared from 16×IC50 drug stocks and tested across a range of two-fold dilutions. Assays were conducted with asynchronous cultures exposed for 72 hr or with tightly synchronized rings or trophozoites (tested at 0–3 hr or 24–27 hr post-invasion, respectively) exposed for 3 hr. Post-pulse drug washouts were conducted as described above for in vitro determination of IC50 levels. IC50 values were derived for each compound tested alone, and fractional IC50 (FIC50) values were determined for each compound tested in combination (FIC50 = […]) and plotted for each drug combination. For each combination, the mean of the sums of FIC50 values at each combination (mean ΣFIC50) was also calculated and the results illustrated using heat maps.

[3] = tested on: Plasmodium parasites; settings: cited from earlier work
[4] = combined with WLL, Asynchronous, 72 hr, Cam3.II K13WT
[5] = combined with WLL, Rings, 3 hr exposure, Cam3.II K13C580Y
[6] = combined with WLL, Rings, 3 hr exposure, Cam3.II K13WT
[7] = combined with WLL, Trophozoites, 3 hr exposure, Cam3.II K13C580Y
[8] = combined with WLL, Trophozoites, 3 hr exposure, Cam3.II K13WT
[9] = combined with WLW, Asynchronous, 72 hr, Cam3.II K13C580Y
[10] = combined with WLW, Asynchronous, 72 hr, Cam3.II K13WT
[11] = combined with WLW, Rings, 3 hr exposure, Cam3.II K13C580Y
[12] = combined with WLW, Rings, 3 hr exposure, Cam3.II K13WT
[13] = combined with WLW, Trophozoites, 3 hr exposure, Cam3.II K13C580Y
[14] = combined with WLW, Trophozoites, 3 hr exposure, Cam3.II K13WT
[15] = across asynchronous parasites, early rings and trophozoites
[16] = combined with WLL, Asynchronous, 72 hr, Cam3.II K13C580Y

SMILES: C[C@H]1[C@@H](O)O[C@@H]2O[C@@]3(C)CC[C@H]4[C@H](C)CC[C@@H]1[C@@]24OO3 [DHA, dihydroartemisinin]
- Mean percent survival ([1]; Early rings (0–3 hpi), Cam3.II K13C580Y): 57.9 ± 5.6%
- Mean percent survival ([1]; Early rings (0–3 hpi), Cam3.II K13WT): 46.8 ± 10.6%
- Mean percent survival ([1]; Late rings (18–21 hpi), Cam3.II K13C580Y): 13.5 ± 3.1%
- Mean percent survival ([1]; Late rings (18–21 hpi), Cam3.II K13WT): 18.9 ± 5.6%
- Mean percent survival ([1]; Mid rings (10–13 hpi), Cam3.II K13C580Y): 29.1 ± 3.4%
- Mean percent survival ([1]; Mid rings (10–13 hpi), Cam3.II K13WT): 35.4 ± 2.7%
- Mean percent survival ([1]; Schizonts (45–48 hpi), Cam3.II K13C580Y): 71.9 ± 13.6%
- Mean percent survival ([1]; Schizonts (45–48 hpi), Cam3.II K13WT): 59.0 ± 5.3%
- Mean percent survival ([1]; Trophs (24–27 hpi), Cam3.II K13C580Y): 4.1 ± 0.6%
- Mean percent survival ([1]; Trophs (24–27 hpi), Cam3.II K13WT): 2.3 ± 0.1%
- Interaction with WLW (isobologram) ([2]; asynchronous parasites, early rings and trophozoites, Cam3.II K13WT and K13C580Y): synergy
- Mean of the sums of FIC50 (mean ΣFIC50) [2, 4]: 0.89
- Mean of the sums of FIC50 (mean ΣFIC50) [2, 5]: 0.77
- Mean of the sums of FIC50 (mean ΣFIC50) [2, 6]: 0.69
- Mean of the sums of FIC50 (mean ΣFIC50) [2, 7]: 0.68
- Mean of the sums of FIC50 (mean ΣFIC50) [2, 8]: 0.70
- Mean of the sums of FIC50 (mean ΣFIC50) [2, 9]: 0.71
- Mean of the sums of FIC50 (mean ΣFIC50) [2, 10]: 0.66
- Mean of the sums of FIC50 (mean ΣFIC50) [2, 11]: 0.44
- Mean of the sums of FIC50 (mean ΣFIC50) [2, 12]: 0.43
- Mean of the sums of FIC50 (mean ΣFIC50) [2, 13]: 0.73
- Mean of the sums of FIC50 (mean ΣFIC50) [2, 14]: 0.69
- Interaction with WLL (isobologram) ([2]; early rings and trophozoites): Synergy

SMILES: Clc1ccc2c(N3CCN(CCCN4CCN(c5ccnc6cc(Cl)ccc56)CC4)CC3)ccnc2c1 [PPQ, piperaquine]
- Interaction with WLL or WLW [2, 15]: Additive to antagonistic; also recorded: antagonism observed in asynchronous parasites and early rings was attenuated in trophozoites
- Mean of the sums of FIC50 (mean ΣFIC50) [2, 16]: 1.37
- Mean of the sums of FIC50 (mean ΣFIC50) [2, 4]: 1.52
- Mean of the sums of FIC50 (mean ΣFIC50) [2, 5]: 1.41
- Mean of the sums of FIC50 (mean ΣFIC50) [2, 6]: 1.46
- Mean of the sums of FIC50 (mean ΣFIC50) [2, 7]: 1.23
- Mean of the sums of FIC50 (mean ΣFIC50) [2, 8]: 1.32
- Mean of the sums of FIC50 (mean ΣFIC50) [2, 9]: 1.33
- Mean of the sums of FIC50 (mean ΣFIC50) [2, 10]: 1.44
- Mean of the sums of FIC50 (mean ΣFIC50) [2, 11]: 1.30
- Mean of the sums of FIC50 (mean ΣFIC50) [2, 12]: 1.20
- Mean of the sums of FIC50 (mean ΣFIC50) [2, 13]: 1.20
- Mean of the sums of FIC50 (mean ΣFIC50) [2, 14]: 1.14

SMILES: CCN(CC)CCCC(C)Nc1ccnc2cc(Cl)ccc12 (stereo not shown) [CQ, chloroquine]
- Interaction with WLL or WLW [2, 15]: Additive to antagonistic; also recorded: moderate to potent antagonism
- Mean of the sums of FIC50 (mean ΣFIC50) [2, 16]: 1.53
- Mean of the sums of FIC50 (mean ΣFIC50) [2, 4]: 1.41
- Mean of the sums of FIC50 (mean ΣFIC50) [2, 5]: 1.70
- Mean of the sums of FIC50 (mean ΣFIC50) [2, 6]: 1.69
- Mean of the sums of FIC50 (mean ΣFIC50) [2, 7]: 1.75
- Mean of the sums of FIC50 (mean ΣFIC50) [2, 8]: 1.89
- Mean of the sums of FIC50 (mean ΣFIC50) [2, 9]: 1.36
- Mean of the sums of FIC50 (mean ΣFIC50) [2, 10]: 1.29
- Mean of the sums of FIC50 (mean ΣFIC50) [2, 11]: 1.54
- Mean of the sums of FIC50 (mean ΣFIC50) [2, 12]: 1.45
- Mean of the sums of FIC50 (mean ΣFIC50) [2, 13]: 1.41
- Mean of the sums of FIC50 (mean ΣFIC50) [2, 14]: 1.57

SMILES: O=C(NCCN1CCCC1)c1cc(-c2ccc(CN3CCOCC3)cc2)nc2ccc(F)cc12 [DDD107498]
- Interaction with WLL or WLW ([2]; asynchronous parasites, 72 hr): antagonism
- Mean of the sums of FIC50 (mean ΣFIC50) [2, 16]: 1.60
- Mean of the sums of FIC50 (mean ΣFIC50) [2, 4]: 1.65
- Mean of the sums of FIC50 (mean ΣFIC50) [2, 9]: 1.44
- Mean of the sums of FIC50 (mean ΣFIC50) [2, 10]: 1.28

SMILES: CC(C)(C)NC(=O)C[C@H](NC(=O)CCc1ccccc1)C(=O)NCCNC(=O)c1cccc(-c2ccccc2)c1 [PKS21004]
- Resistance of selected parasites, fold increase over the sensitive parent [3]: > 130 fold

SMILES: O=C(O)CCc1cccc2c1B(O)OC2 [AN3661]
- Interaction with WLL or WLW ([2]; asynchronous parasites, 72 hr): antagonism
- Mean of the sums of FIC50 (mean ΣFIC50) [2, 16]: 1.58
- Mean of the sums of FIC50 (mean ΣFIC50) [2, 4]: 1.69
- Mean of the sums of FIC50 (mean ΣFIC50) [2, 9]: 1.63
- Mean of the sums of FIC50 (mean ΣFIC50) [2, 10]: 1.64

SMILES: O=C1C(O)=C([C@H]2CC[C@H](c3ccc(Cl)cc3)CC2)C(=O)c2ccccc21 [ATQ, atovaquone]
- Interaction with WLL or WLW [2, 15]: Additive to antagonistic; also recorded: antagonism observed in asynchronous parasites and early rings was attenuated in trophozoites
- Mean of the sums of FIC50 (mean ΣFIC50) [2, 16]: 1.22
- Mean of the sums of FIC50 (mean ΣFIC50) [2, 4]: 1.33
- Mean of the sums of FIC50 (mean ΣFIC50) [2, 5]: 1.54
- Mean of the sums of FIC50 (mean ΣFIC50) [2, 6]: 1.64
- Mean of the sums of FIC50 (mean ΣFIC50) [2, 7]: 0.99
- Mean of the sums of FIC50 (mean ΣFIC50) [2, 8]: 1.11
- Mean of the sums of FIC50 (mean ΣFIC50) [2, 9]: 1.16
- Mean of the sums of FIC50 (mean ΣFIC50) [2, 10]: 1.28
- Mean of the sums of FIC50 (mean ΣFIC50) [2, 11]: 1.20
- Mean of the sums of FIC50 (mean ΣFIC50) [2, 12]: 1.17
- Mean of the sums of FIC50 (mean ΣFIC50) [2, 13]: 1.07
- Mean of the sums of FIC50 (mean ΣFIC50) [2, 14]: 1.02

SMILES: CCCCN(CCCC)CC(O)c1cc(Cl)cc2c1-c1ccc(Cl)cc1/C2=C/c1ccc(Cl)cc1 (stereo not shown) [LMF, lumefantrine]
- Interaction with WLL or WLW [2, 15]: Additive to antagonistic
- Interaction with WLL or WLW ([2]; asynchronous parasites, 72 hr): mild antagonism
- Mean of the sums of FIC50 (mean ΣFIC50) [2, 16]: 1.24
- Mean of the sums of FIC50 (mean ΣFIC50) [2, 4]: 1.42
- Mean of the sums of FIC50 (mean ΣFIC50) [2, 5]: 1.13
- Mean of the sums of FIC50 (mean ΣFIC50) [2, 6]: 1.23
- Mean of the sums of FIC50 (mean ΣFIC50) [2, 7]: 1.24
- Mean of the sums of FIC50 (mean ΣFIC50) [2, 8]: 1.12
- Mean of the sums of FIC50 (mean ΣFIC50) [2, 9]: 1.07
- Mean of the sums of FIC50 (mean ΣFIC50) [2, 10]: 1.32
- Mean of the sums of FIC50 (mean ΣFIC50) [2, 11]: 0.98
- Mean of the sums of FIC50 (mean ΣFIC50) [2, 12]: 0.95
- Mean of the sums of FIC50 (mean ΣFIC50) [2, 13]: 1.01
- Mean of the sums of FIC50 (mean ΣFIC50) [2, 14]: 1.16
- Interaction with WLL or WLW ([2]; early rings and trophozoites): largely additive

SMILES: CC(=O)N1CCN(c2ccc(CN(C(=O)/C=C/c3ccc(C(C)(C)C)cc3)[C@@H](Cc3ccccc3)C(=O)N3CCN(Cc4ccc(C#N)cc4)CC3)cc2)CC1 [ACT-451840]
- Interaction with WLL or WLW ([2]; asynchronous parasites, 72 hr): antagonism
- Mean of the sums of FIC50 (mean ΣFIC50) [2, 16]: 1.27
- Mean of the sums of FIC50 (mean ΣFIC50) [2, 4]: 1.34
- Mean of the sums of FIC50 (mean ΣFIC50) [2, 9]: 1.14
- Mean of the sums of FIC50 (mean ΣFIC50) [2, 10]: 1.16

SMILES: C[C@@H]1C[C@@H]([C@H](O)CC2CC(=O)NC(=O)C2)C(=O)[C@@H](C)C1 [CHX, cycloheximide]
- Interaction with WLL or WLW ([2]; asynchronous parasites, 72 hr): antagonism
- Mean of the sums of FIC50 (mean ΣFIC50) [2, 16]: 1.40
- Mean of the sums of FIC50 (mean ΣFIC50) [2, 4]: 1.44
- Mean of the sums of FIC50 (mean ΣFIC50) [2, 9]: 1.37
- Mean of the sums of FIC50 (mean ΣFIC50) [2, 10]: 1.29

SMILES: O=C(CC1NCCCC1O)Cn1cnc2cc(Br)c(Cl)cc2c1=O (stereo not shown) [HFG, halofuginone]
- Interaction with WLL or WLW ([2]; asynchronous parasites, 72 hr): antagonism
- Mean of the sums of FIC50 (mean ΣFIC50) [2, 16]: 1.46
- Mean of the sums of FIC50 (mean ΣFIC50) [2, 4]: 1.47
- Mean of the sums of FIC50 (mean ΣFIC50) [2, 9]: 1.53
- Mean of the sums of FIC50 (mean ΣFIC50) [2, 10]: 1.42
